Key:
[1] = molecular target: Integrin alpha5/beta1 (Homo sapiens); test: Agonist activity at alpha5beta1 integrin receptor in human K562 cells assessed as inhibition of fibronectin-induced cell adhesion pre-incubated for 30 mins followed by 1 hr incubation in fibronectin coated wells by fluorescence plate reader assay
[2] = molecular target: Integrin alpha-L/beta-2 (LFA-1) (Homo sapiens); test: Agonist activity at alphaLbeta2 integrin receptor in human Jurkat E6.1 cells assessed as inhibition of ICAM-1-induced cell adhesion pre-incubated for 30 mins followed by 30 mins incubation in ICAM-1 coated wells by fluorescence plate reader assay
[3] = molecular target: Integrin alpha4/beta1 (Homo sapiens); test: Agonist activity at alpha4beta1 integrin receptor in human Jurkat E6.1 cells assessed as inhibition of fibronectin-induced cell adhesion pre-incubated for 30 mins followed by 30 mins incubation in fibronectin coated wells by fluorescence plate reader assay
[4] = molecular target: Integrin alpha4/beta1 (Homo sapiens); test: Agonist activity at alpha4beta1 integrin receptor in human Jurkat E6.1 cells assessed as inhibition of vascular cell adhesion molecule 1-induced cell adhesion pre-incubated for 30 mins followed by 30 mins incubation in vascular cell adhesion molecule 1 coated wells by fluorescence plate reader assay

EC50 [1]	EC50 [2]	EC50 [3]	EC50 [4]	Compound
> 5 µM	> 5 µM			Cc1ccccc1NC(=O)N1C(=O)CC1CC(=O)O (stereo not given)
	> 5 µM	> 5 µM	> 5 µM	Cc1ccccc1NC(=O)N1C(=O)CC1CC(=O)NCC(=O)O (stereo not given)

From BindingDB's records for doi:10.1021/acs.jmedchem.2c02098 (University of Bologna, 2023)
